From US11116767B2, “3,5-disubstituted pyrazoles useful as checkpoint kinase 1 (Chk1) inhibitors, and their preparations and applications” (PHARMAENGINE, INC., priority 2016, dated 2021)

How the values were obtained:
[1] = Pharmacokinetics study in rats, intravenous; type: in vivo, SD rats; details: rat, in vivo, iv
Description: Compounds were formulated in 30% SEB-β-CD (Zhiyuan Bio-technology) with 1 molar equivalents of HCl (pH adjusted to 3-5). Male SD rats (280-350 g) were purchased from Medical Laboratory Animal Center of Guangdong. Three rats were used for each PK study. […] At various time points after compound administration, approximately 0.2˜0.3 mL of blood was collected by cutting the end of tail into tubes containing K2-EDTA. The plasma was separated via centrifugation and stored at −80° C. A PE Sciex API-3000 LC-MS/MS system (Applied Biosystems, Inc.) was used to analyze compound concentrations in plasma.
PK studies of ChK1 inhibitors were conducted in rats after intravenous administration at 10 mg/kg. […]. […]

[2] = tested on: HT-29 tumor xenograft; assay: HT-29 xenograft model, alone or in combination with CPT-11; type: in vivo, Balb/c nude mice; details: for % T/C value: 40 mg/kg, IV
Description: Female Balb/c nude mice at 7-8 weeks of age (Body weights between 17-18g) were purchased from Hunan SJA Laboratory Animal Co., Ltd. HT-29 cells were cultured in DMEM culture medium containing 10% fetal bovine serum and LoVo cells were cultured in RPMI 1640 culture medium containing 10% fetal bovine serum. The cells were harvested and washed with serum free culture medium. Finally, the cells were suspended at a cell density of […] in serum free culture medium for implantation. 5 million cells per animal suspended in 0.1 ml serum free culture medium and 1.1 matrigel were injected into the right flank of the animals after a one, week acclimation period. When average tumor volume reached acceptable tumor size (100-200 mm^3) and shape, the animals were randomly assigned into treatment groups.
In HT-29 tumor xenograft model, the animals were treated with a single compound, a ChK1 inhibitor or CPT-11, or a combination with CPT11. […] The animals well tolerated each treatment in the HT-29 colon cancer in nude mice model.

COc1cc(F)cc(OCCCN)c1-c1cc(Nc2cnc(C#N)cn2)n[nH]1 [Compound 3, 5-(5-(2-(3-Aminopropoxy)-4-fluoro-6-methoxyphenyl)-1H-pyrazol-3-ylamino)pyrazine-2-carbonitrile]
AUC(0-inf) ([1]; male, SD, 10 mg/kg): 4640 ng·h/mL | AUC(0-t) ([1]; male, SD, 10 mg/kg): 4530 ng·h/mL | MRT ([1]; male, SD, 10 mg/kg): 2.8 h | clearance ([1]; male, SD, 10 mg/kg): 38.3 mL/min/kg | half-life ([1]; male, SD, 10 mg/kg): 3.8 h | Vd ([1]; male, SD, 10 mg/kg, Vd): 12.3 L/kg | Vd ([1]; male, SD, 10 mg/kg, Vss): 6.4 L/kg | half-life and exposure compared with LY2606368 [1]: longer half-life and higher exposure than LY2606368 | efficacy compared with LY-2606368, alone or with CPT-11 ([2]; 40 mg/kg IV twice a week vs LY-2606368 15 mg/kg IV twice a week): more efficacious than the reference LY-2606368 | % T/C value ([2]; twice a week plus CPT-11 (50 mg/kg, IV, once per week)): −9% | % T/C value ([2]; alone, twice a week): 26% | effect on anti-tumor growth activity of CPT11 ([2]; combination with CPT11): enhanced anti-tumor growth activity of CPT11
